In patent publication US20180207138A1, “METHODS FOR THE TREATMENT OF TREMORS BY POSITIVE MODULATION OF SK CHANNELS” (Cadent Therapeutics, Inc., priority 2017, published 2018):
Where two headings read alike, the source gives them in different places.

Key:
Harmaline-induced tremor [1] = conditions: for inhibition of tremors (tremor events): FIG. 1; for Minimally Efficacious Dose: oral dosing 30 min before 10 mg/Kg ip Harmaline, tremor events over 60 min
Method: The structure of each of these compounds is duplicated below.
Animals were administered with either Vehicle or compound (orally) 30 minutes prior to Harmaline administration (t=−30 minutes). Animals were then dosed ip with 10 mg/Kg Harmaline HCl in isotonic saline (t=0 minutes). Immediately following Harmaline administration, animals were monitored for 1 hour (t=0-60 minutes) to quantify the number of tremor events.
Tremor events were quantified via automated capture of forelimb tremor activity and confirmed by visual observation. Prior to testing, animals were fitted with a small metal band (0.5 g) on the right forepaw and acclimated to the testing apparatus for one hour. Immediately following Harmaline administration, animals were placed in the testing apparatus and tremor events were quantified for 60 minutes. A tremor event signal was generated when the transmitter band on the animal moved within the electromagnetic field generated by a loop antenna within the testing apparatus. Outputs from the amplifier were digitized at a sampling rate of 1,000 Hz and the signal was processed and analyzed using LabView software (National Instruments). […] Data were analyzed in one-minute bins over the course of the test and presented as the sum of tremor events over the entire 60 minute test.

[2] = male, Sprague Dawley, rat, in vivo; for Measured Brain Concentration: po
Method: (§1) It is calculated as follows: CFB=CMB×BFF, where CMB is the concentration of compound measured by mass spectrometry from brains harvested immediately following tremor recording (Table 1, “Measured Brain Concentration”). CFB is the amount of free compound not complexed with protein and therefore free to interact with the SK2 channel (Table 1, “Calculated Free Brain Concentration”). BFF is average free fraction of compound as measured by equilibrium dialysis (Table 1, “Brain Free Fraction”). This was performed by using 1 μM of compound with 10% brain tissue homogenate in phosphate buffer saline. Incubation time was 5 hours at 37° C. and detection was by LC-MS/MS. Reference compound was carbazepine. Free drug in brain available to interact with SK2 channels (CFB) is arrived at by multiplying the measured total brain level (CMB) by the average free fraction (BFF).

in vitro = conditions: brain homogenate
Method: as §1

harmaline-induced tremor [3] = conditions: for tremor, power spectrum in 10-14 Hz band: 5 mg/kg ip harmaline, 30 minutes; for percent Motion Power (% MP): FIG. 3
Method: Whole body tremor was measured by a San Diego Instruments Tremor Monitor (San Diego, Calif., USA). […] Tremor was measured for 30 minutes following harmaline administration, and data were analyzed by fast Fourier transform and reported as a frequency power spectrum. […] Data were further analyzed by calculating the percent Motion Power (% MP), defined as the power in the 9-13 Hz band divided by the total power across the spectrum (0-30 Hz) multiplied by 100.

Row | Compound | inhibition of tremors (tremor events) (Harmaline-induced tremor [1]; 60 mg/Kg orally) | Minimally Efficacious Dose (Harmaline-induced tremor [1]) | Calculated Free Brain Concentration [2] | Measured Brain Concentration [2] | fraction unbound at 5 h, 1 μM (in vitro) | inhibition of tremors (tremor events) (Harmaline-induced tremor [1]; 30 mg/Kg orally) | tremor, power spectrum in 10-14 Hz band (harmaline-induced tremor [3]; 3 mg/kg orally) | percent Motion Power (% MP) (harmaline-induced tremor [3]; 3 mg/kg orally, n=8, P<0.01 vs harmaline+vehicle) | tremor, power spectrum in 10-14 Hz band (harmaline-induced tremor [3]; 10 mg/kg orally) | percent Motion Power (% MP) (harmaline-induced tremor [3]; 10 mg/kg orally, n=16, P<0.05 vs harmaline+vehicle) | tremor, power spectrum in 10-14 Hz band (harmaline-induced tremor [3]; 30 mg/kg orally) | percent Motion Power (% MP) (harmaline-induced tremor [3]; 30 mg/kg orally, n=13, P<0.05 vs harmaline+vehicle)
1 | Cc1cc(C)n(-c2nc(NC3CCC(F)(F)CC3)cc(N3CCOCC3)n2)n1 [Compound 1] | significant inhibition of tremors | 60 mg/kg | 0.15 µM | 3.1 µM | 0.048 | – | – | – | – | – | – | –
2 | Cc1ccn(-c2nc(NC3CCC(F)(F)CC3)cc(N3CCOCC3)n2)n1 [Compound 2] | – | 30 mg/kg | 0.08 µM | 1.3 µM | – | significant inhibition of tremors | significantly reduced tremor | significantly reduced harmaline-induced tremor | significantly reduced tremor | significantly reduced harmaline-induced tremor | significantly reduced tremor | significantly reduced harmaline-induced tremor
